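Dose response: 5 concentrations. Exposure: 48 h. Format: 96-well plates. Endpoint: linear interpolation; highest concentration if not reached. The concentration for 50% growth inhibition is given as GI50. TGI marks complete inhibition of growth.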
Experiments:
Test in all cases: growth of human tumour cells (NCI), 48 h
OVCAR-8 ovarian = system: OVCAR-8 ovarian
A498 renal = system: A498 renal
UACC-62 melanoma = system: UACC-62 melanoma
SW-620 colon = system: SW-620 colon
EKVX NSCLC = system: EKVX NSCLC
MDA-MB-231 breast = system: MDA-MB-231 breast
OVCAR-5 ovarian = system: OVCAR-5 ovarian
OVCAR-3 ovarian = system: OVCAR-3 ovarian
MALME-3M melanoma = system: MALME-3M melanoma
OVCAR-4 ovarian = system: OVCAR-4 ovarian

| SMILES | TGI (OVCAR-8 ovarian) [µM] | TGI (A498 renal) [µM] | TGI (UACC-62 melanoma) [µM] | TGI (SW-620 colon) [µM] | TGI (EKVX NSCLC) [µM] | GI50 (MDA-MB-231 breast) [µM] | TGI (MDA-MB-231 breast) [µM] | GI50 (OVCAR-5 ovarian) [µM] | TGI (OVCAR-5 ovarian) [µM] | GI50 (A498 renal) [µM] | GI50 (UACC-62 melanoma) [µM] | GI50 (OVCAR-3 ovarian) [µM] | TGI (OVCAR-3 ovarian) [µM] | GI50 (SW-620 colon) [µM] | GI50 (MALME-3M melanoma) [µM] | TGI (MALME-3M melanoma) [µM] | GI50 (OVCAR-4 ovarian) [µM] | TGI (OVCAR-4 ovarian) [µM] |
| --- | --- | --- | --- | --- | --- | --- | --- | --- | --- | --- | --- | --- | --- | --- | --- | --- | --- | --- |
| O=C(NCCOCCO)c1ccc(O)cc1 | > 100 | > 100 | > 100 | > 100 | 42.9 | – | – | – | – | – | – | – | – | – | – | – | – | – |
| OC(c1cc2c(Cl)cc(Cl)cc2c2cc(C(F)(F)F)ccc12)C1CCCCN1 (configuration not stated) | – | 2.9 | 3.42 | 3.64 | – | 1.48 | 3.24 | 1.58 | 3.15 | 1.46 | 1.78 | 1.91 | 3.52 | 1.76 | 1.85 | 3.91 | 2.11 | 4.08 |
| C[C@]12CC[C@H](O)CC1CCC[C@@H]2O (some centres not stated) | > 100 | > 100 | > 100 | > 100 | > 100 | – | – | – | – | – | – | – | > 100 | – | – | > 100 | – | > 100 |
| CN1CCN(C(=S)N(C(=O)c2ccc(Cl)cc2)C2CCCCC2)CC1 | > 100 | – | > 100 | > 100 | – | – | > 100 | – | > 100 | – | – | – | > 100 | – | – | > 100 | – | > 100 |
| Cn1c(=O)c2nc3sc4ccccc4c(=N)n3c2n(C)c1=O | > 100 | > 100 | > 100 | > 100 | > 100 | – | – | – | > 100 | – | – | – | – | – | – | > 100 | – | > 100 |
| Cc1ccc(Sc2cc([N+](=O)[O-])cc(Sc3ccc(C)cc3)c2Sc2ccc(C)cc2)cc1 | > 100 | > 100 | > 100 | > 100 | > 100 | – | – | – | > 100 | – | – | – | > 100 | – | – | > 100 | – | – |
| Cn1c(=O)ccc2cc(C(=O)c3ccccc3)ccc21 | > 100 | > 100 | 50.5 | > 100 | > 100 | – | – | – | > 100 | – | – | – | > 100 | – | – | > 100 | – | > 100 |
| O=C1CCC(=O)C12CCc1ccccc12 | > 100 | – | > 100 | > 100 | > 100 | – | – | – | – | – | – | – | > 100 | – | – | > 100 | – | > 100 |
| C=C1[C@@H]2CCC(C)(C)[C@H]1CCC(=O)[C@@H]2C(=O)OC | > 100 | > 100 | > 100 | > 100 | > 100 | – | – | – | – | – | – | – | > 100 | – | – | > 100 | – | > 100 |
| OC1OC2COC(c3ccccc3)OC2C(O)C1O (configuration not stated) | > 100 | > 100 | > 100 | > 100 | > 100 | – | – | – | > 100 | – | – | – | > 100 | – | – | > 100 | – | > 100 |
| Nc1c(-c2ccc(-c3c(N)[n+]([O-])c4ccccc4[n+]3[O-])cc2)[n+]([O-])c2ccccc2[n+]1[O-] | > 100 | 35.5 | 24.3 | 21.6 | 79.9 | – | – | – | 35.2 | – | – | – | 29.8 | – | – | 8.57 | – | 35.9 |
| COc1ccc(/C=C\c2cc(OC)c(OC(C)=O)c(OC)c2)cc1 | 76.7 | 45 | 33.5 | > 100 | > 100 | – | – | – | 88.8 | – | – | – | > 100 | – | – | 91.1 | – | > 100 |
| COc1cccc(/C=N/[N-]C(N)=O)c1[O-].[Cu+2].c1ccncc1 | 86.1 | 45.5 | 41.1 | 40.8 | 65.5 | – | – | – | 45.1 | – | – | – | 28.8 | – | – | 28.3 | – | 56.2 |
| O=C1OC(=O)C2C1C1(c3ccccc3)OC2(c2ccccc2)c2c(Br)c(Br)c(Br)c(Br)c21 (configuration not stated) | > 100 | > 100 | > 100 | > 100 | > 100 | – | – | – | > 100 | – | – | – | > 100 | – | – | > 100 | – | > 100 |
| Cc1cccc(C)c1NC(=O)/C(CC(=O)CC(c1ccccc1)c1c(O)c2ccccc2oc1=O)=N/O (configuration not stated) | > 100 | – | > 100 | > 100 | > 100 | – | > 100 | – | > 100 | – | – | – | > 100 | – | – | – | – | > 100 |
| CCN(CC)[C@@H]1c2cc3c(cc2C(c2cc(OC)c(O)c(OC)c2)C2C(=O)CO[C@@H]21)OCO3 (some centres not stated) | > 100 | > 100 | > 100 | > 100 | > 100 | – | – | – | > 100 | – | – | – | – | – | – | > 100 | – | > 100 |
| CCC1(O)CC(c2ccccc2)N(C)C(c2ccccc2)C1 (configuration not stated) | > 100 | > 100 | > 100 | > 100 | > 100 | – | – | – | > 100 | – | – | – | > 100 | – | – | > 100 | – | > 100 |
| O=C1OC(/C=C/c2ccccc2)C(=O)C1=O (configuration not stated) | – | > 100 | > 100 | > 100 | > 100 | – | – | – | > 100 | – | – | – | – | – | – | > 100 | – | > 100 |

| SMILES | TGI (OVCAR-8 ovarian) [µM] | TGI (A498 renal) [µM] | TGI (UACC-62 melanoma) [µM] | TGI (SW-620 colon) [µM] | TGI (EKVX NSCLC) [µM] | GI50 (MDA-MB-231 breast) [µM] | TGI (MDA-MB-231 breast) [µM] | GI50 (OVCAR-5 ovarian) [µM] | TGI (OVCAR-5 ovarian) [µM] | GI50 (A498 renal) [µM] | GI50 (UACC-62 melanoma) [µM] | GI50 (OVCAR-3 ovarian) [µM] | TGI (OVCAR-3 ovarian) [µM] | GI50 (SW-620 colon) [µM] | GI50 (MALME-3M melanoma) [µM] | TGI (MALME-3M melanoma) [µM] | GI50 (OVCAR-4 ovarian) [µM] | TGI (OVCAR-4 ovarian) [µM] |
| --- | --- | --- | --- | --- | --- | --- | --- | --- | --- | --- | --- | --- | --- | --- | --- | --- | --- | --- |
| CN=C(NC#N)NCc1ccccc1 | > 100 | > 100 | – | > 100 | > 100 | – | – | – | > 100 | – | – | – | > 100 | – | – | > 100 | – | > 100 |
| CCCCCCCCCCCCCCCc1nc(SCC(=O)O)n[nH]1 | > 100 | – | > 100 | > 100 | > 100 | – | – | – | – | – | – | – | > 100 | – | – | > 100 | – | > 100 |
| COc1ccc(/C=C2\CCC(CN(C)C)C2=O)cc1 (configuration not stated) | 12.1 | 28.9 | 22.6 | 4.32 | 37.5 | – | – | – | 30 | – | – | – | 10.6 | – | – | 11.1 | – | 16.1 |
| CC(=O)c1ccc(-c2ccc(C(C)=O)s2)s1 | > 100 | 4.16 | > 100 | > 100 | > 100 | – | – | – | > 100 | – | – | – | > 100 | – | – | > 100 | – | > 100 |
| O=C(c1ccccc1)C(c1ccccc1)C1(O)C(=O)Nc2ccc(Br)cc21 (configuration not stated) | > 100 | > 100 | 39.2 | > 100 | > 100 | – | – | – | > 100 | – | – | – | > 100 | – | – | > 100 | – | > 100 |
| COc1cc(C2C(Cl)C(=O)N2NC(=O)c2ccccc2O)cc(OC)c1OC (configuration not stated) | > 10 | – | > 10 | > 10 | > 10 | – | – | – | > 10 | – | – | – | > 10 | – | – | – | – | > 10 |
| CCn1cc(C(=O)O)c(=O)c2cc(F)c(N3CCNCC3)nc21 | > 100 | > 100 | > 100 | > 100 | > 100 | – | – | – | > 100 | – | – | – | > 100 | – | – | > 100 | – | > 100 |
| Fc1cccc(C2SCc3nc4ccccc4n32)c1 (configuration not stated) | > 100 | – | > 100 | > 100 | > 100 | – | – | – | 79.3 | – | – | – | > 100 | – | – | > 100 | – | – |
| COC(=O)C1=CCS(=O)(=O)C1 | > 100 | > 100 | > 100 | > 100 | > 100 | – | – | – | > 100 | – | – | – | > 100 | – | – | > 100 | – | > 100 |
| Cc1cc2c(C=O)[nH]nc2c(C#N)c1C | > 100 | > 100 | > 100 | > 100 | > 100 | – | – | – | > 100 | – | – | – | > 100 | – | – | > 100 | – | > 100 |
| O=C1C2Cc3ccccc3CN2C(=O)N1CCN1CCOCC1 (configuration not stated) | > 100 | > 100 | > 100 | > 100 | – | – | – | – | > 100 | – | – | – | > 100 | – | – | > 100 | – | > 100 |
| CC12CCC(C)(c3cc(O)c(O)cc31)c1cc(O)c(O)cc12 | 57.9 | – | 36.2 | 40.9 | 56.3 | – | – | – | 48.1 | – | – | – | 32.6 | – | – | 45.2 | – | 28.7 |
| O=CN/C=C\c1cc(O)ccc1O | 32.1 | > 100 | 17.5 | 25.6 | 32.9 | – | – | – | > 100 | – | – | – | 25 | – | – | 28.9 | – | 26.8 |
| O=c1c2ccc(Br)cc2nc(-c2ccccc2)n1NC1OC(CO)C(O)C(O)C1O (configuration not stated) | > 100 | > 100 | > 100 | > 100 | > 100 | – | – | – | > 100 | – | – | – | > 100 | – | – | > 100 | – | > 100 |
| OC1/C(=C/c2ccccc2)CNC/C1=C\c1ccccc1 (configuration not stated) | > 100 | > 100 | > 100 | > 100 | > 100 | – | – | – | > 100 | – | – | – | > 100 | – | – | > 100 | – | > 100 |
| COc1cc(C2C(C(=O)Nc3ccccc3C)=C(C)NC(C)=C2C(=O)Nc2ccccc2C)ccc1O | > 100 | > 100 | > 100 | > 100 | > 100 | – | – | – | > 100 | – | – | – | > 100 | – | – | > 100 | – | > 100 |
| OCC1C2C=CC(O2)[C@H]1CO (some centres not stated) | > 100 | > 100 | > 100 | > 100 | > 100 | – | – | – | > 100 | – | – | – | > 100 | – | – | > 100 | – | > 100 |
| O=c1cc(/C=C/c2ccccc2)c2ccc(O/C(=C\c3ccccc3)c3nc4ccccc4c(=O)o3)cc2o1 | > 100 | > 100 | > 100 | > 100 | > 100 | – | – | – | > 100 | – | – | – | 81.1 | – | – | > 100 | – | > 100 |
